Several values for one entry are separate records, joined by “and”; a condition that tells them apart may be missing. Identical values can stand only once. Inconclusive results and toxic doses are left out. How the source made its calls: active means survival T/C of 150% or more; inactive means T/C below 125% in these data.
Test system: AKR/Lw mice, AKR lymphoma ip, median survival T/C
Test: NCI In Vivo Anticancer Drug Screen. Data for tumor model Lymphoma AKR (Transplanted) (intraperitoneal) in AKR/Lw mice
Conditions: endpoint: median survival time, higher = longer survival
Experimental: The antitumor activity of compounds was measured in mice bearing transplantable tumors. Survival or tumor size were measured and the results are expressed as the measurement made in the treated group (T) divided by the measurement made in the vehicle treated control group (C). The tumor model used in this assay is Lymphoma AKR (Transplanted) (intraperitoneal) in AKR/Lw mice

[1] = dose: 50.0 mg/kg/injection, schedule: Q01DX001 (ip), vehicle: saline
[2] = dose: 100.0 mg/kg/injection, schedule: Q01DX001 (ip), vehicle: saline
[3] = dose: 200.0 mg/kg/injection, schedule: Q01DX001 (ip), vehicle: saline
[4] = dose: 100.0 mg/kg/injection, schedule: Q01DX001 (ip), vehicle: Klucel (hydroxypropylcellulose) (HPC)
[5] = dose: 200.0 mg/kg/injection, schedule: Q01DX001 (ip), vehicle: Klucel (hydroxypropylcellulose) (HPC)
[6] = dose: 400.0 mg/kg/injection, schedule: Q01DX001 (ip), vehicle: Klucel (hydroxypropylcellulose) (HPC)
[7] = dose: 25.0 mg/kg/injection, schedule: Q01DX001 (ip), vehicle: saline
[8] = dose: 100.0 mg/kg/injection, schedule: Q01DX001 (ip), vehicle: saline with Tween-80
[9] = dose: 400.0 mg/kg/injection, schedule: Q04DX003 (ip), vehicle: saline

Measured: T/C

Cc1c(C(=O)O)cc2n(c1=O)Cc1cc3ccccc3nc1-2
inactive: [1] 102 % of control | dose: 50.0 mg/kg/injection, schedule: Q04DX003 (ip), vehicle: saline with Tween-80 93 % of control | [2] 100 % of control | dose: 100.0 mg/kg/injection, schedule: Q04DX003 (ip), vehicle: saline with Tween-80 100 % of control | [3] 94 % of control

COc1ccc(-n2c(=S)[nH]c3ccccc3c2=O)cc1
inactive: dose: 75.0 mg/kg/injection, schedule: Q04DX003 (ip), vehicle: Klucel (hydroxypropylcellulose) (HPC) 88 % of control | [4] 106 % of control | dose: 150.0 mg/kg/injection, schedule: Q04DX003 (ip), vehicle: Klucel (hydroxypropylcellulose) (HPC) 86 % of control | [5] 87 % of control | [6] 90 % of control

CC[N+]1=NC2CCCC(C2)C1 (stereo not drawn)
inactive: [2] 101 % of control | [3] 106 % of control

O=C(/C=C/c1cccc([N+](=O)[O-])c1)NCCBr
inactive: [4] 102 % of control | [5] 104 % of control | [6] 86 % of control

COc1ccc(S(=O)O)cc1NC(C)=O
inactive: dose: 50.0 mg/kg/injection, schedule: Q04DX003 (ip), vehicle: other 95 % of control | [2] 107 % of control | dose: 100.0 mg/kg/injection, schedule: Q04DX003 (ip), vehicle: other 97 % of control | [3] 101 % of control | dose: 200.0 mg/kg/injection, schedule: Q04DX003 (ip), vehicle: other 95 % of control

O=NN(CCCl)C(=O)NC1CCCCC1
inactive: dose: 2.0 mg/kg/injection, schedule: Q04DX003 (ip), vehicle: Klucel (hydroxypropylcellulose) (HPC) 102 % of control | dose: 2.5 mg/kg/injection, schedule: Q01DX001 (ip), vehicle: Klucel (hydroxypropylcellulose) (HPC) 109 % of control | dose: 4.4 mg/kg/injection, schedule: Q04DX003 (ip), vehicle: Klucel (hydroxypropylcellulose) (HPC) 106 % of control | dose: 5.0 mg/kg/injection, schedule: Q01DX001 (ip), vehicle: Klucel (hydroxypropylcellulose) (HPC) 111 % of control | dose: 5.0 mg/kg/injection, schedule: Q04DX004 (ip), vehicle: Klucel (hydroxypropylcellulose) (HPC) 100 % of control | dose: 6.25 mg/kg/injection, schedule: Q07DX003 (ip), vehicle: saline 109 % of control | dose: 6.7 mg/kg/injection, schedule: Q04DX003 (ip), vehicle: Klucel (hydroxypropylcellulose) (HPC) 122 % of control | dose: 10.0 mg/kg/injection, schedule: Q04DX003 (ip), vehicle: Klucel (hydroxypropylcellulose) (HPC) 115 % of control | dose: 10.0 mg/kg/injection, schedule: Q04DX004 (ip), vehicle: Klucel (hydroxypropylcellulose) (HPC) 100 % of control | dose: 12.5 mg/kg/injection, schedule: Q07DX003 (ip), vehicle: saline 96 % of control and 115 % of control and 118 % of control | [7] 106 % of control and 115 % of control | dose: 25.0 mg/kg/injection, schedule: Q07DX003 (ip), vehicle: saline 106 % of control and 109 % of control | [1] 115 % of control
active: dose: 7.0 mg/kg/injection, schedule: Q01DX001 (ip), vehicle: Klucel (hydroxypropylcellulose) (HPC) 165 % of control | dose: 25.0 mg/kg/injection, schedule: Q01DX001 (ip), vehicle: saline with Tween-80 159 % of control | dose: 50.0 mg/kg/injection, schedule: Q01DX001 (ip), vehicle: saline with Tween-80 365 % of control | [8] 218 % of control

CC1(C)N=C(N)N=C(N)N1c1cc(Cl)ccc1Cl
inactive: [7] 93 % of control | [1] 93 % of control

O=C(NC(CSSCC(NC(=O)OCc1ccccc1)C(=O)O)C(=O)O)OCc1ccccc1 (stereo not drawn)
inactive: [2] 107 % of control | dose: 100.0 mg/kg/injection, schedule: Q04DX003 (ip), vehicle: saline 100 % of control | [3] 107 % of control | dose: 400.0 mg/kg/injection, schedule: Q01DX001 (ip), vehicle: saline 102 % of control | [9] 89 % of control

CN(Cc1cnc2nc(N)nc(N)c2n1)c1ccc(C(=O)N[C@@H](CCC(=O)O)C(=O)O)cc1
inactive: dose: 0.15 mg/kg/injection, schedule: Q04DX003 (ip), vehicle: saline 100 % of control | dose: 0.25 mg/kg/injection, schedule: Q01DX001 (ip), vehicle: saline 106 % of control | dose: 0.25 mg/kg/injection, schedule: Q01DX009 (ip), vehicle: saline 112 % of control | dose: 0.25 mg/kg/injection, schedule: Q01DX015 (ip), vehicle: saline 114 % of control and 116 % of control | dose: 0.3 mg/kg/injection, schedule: Q04DX003 (ip), vehicle: saline 111 % of control | dose: 0.5 mg/kg/injection, schedule: Q01DX001 (ip), vehicle: saline 109 % of control and 117 % of control | dose: 0.5 mg/kg/injection, schedule: Q04DX008 (ip), vehicle: saline 116 % of control | dose: 0.6 mg/kg/injection, schedule: Q04DX003 (ip), vehicle: saline 98 % of control | dose: 0.75 mg/kg/injection, schedule: Q01DX009 (ip), vehicle: saline 112 % of control | dose: 0.75 mg/kg/injection, schedule: Q04DX003 (ip), vehicle: saline 87 % of control and 93 % of control and 111 % of control | dose: 1.0 mg/kg/injection, schedule: Q01DX001 (ip), vehicle: saline 109 % of control and 115 % of control | dose: 1.2 mg/kg/injection, schedule: Q01DX009 (ip), vehicle: saline 91 % of control | dose: 1.5 mg/kg/injection, schedule: Q01DX001 (ip), vehicle: saline 89 % of control and 102 % of control | dose: 2.0 mg/kg/injection, schedule: Q01DX001 (ip), vehicle: saline 106 % of control and 115 % of control | dose: 2.0 mg/kg/injection, schedule: Q04DX003 (ip), vehicle: saline 95 % of control | dose: 2.5 mg/kg/injection, schedule: Q01DX009 (ip), vehicle: saline 87 % of control and 91 % of control | dose: 3.0 mg/kg/injection, schedule: Q01DX001 (ip), vehicle: saline 100 % of control and 114 % of control and 116 % of control | dose: 4.0 mg/kg/injection, schedule: Q01DX001 (ip), vehicle: saline 116 % of control | dose: 4.0 mg/kg/injection, schedule: Q01DX009 (ip), vehicle: saline 94 % of control | dose: 4.0 mg/kg/injection, schedule: Q04DX003 (ip), vehicle: saline 109 % of control | dose: 4.0 mg/kg/injection, schedule: Q04DX008 (ip), vehicle: saline 113 % of control | dose: 5.0 mg/kg/injection, schedule: Q01DX001 (ip), vehicle: saline 114 % of control | dose: 5.0 mg/kg/injection, schedule: Q01DX009 (ip), vehicle: saline 88 % of control | dose: 10.0 mg/kg/injection, schedule: Q01DX001 (ip), vehicle: saline 102 % of control and 104 % of control | dose: 11.0 mg/kg/injection, schedule: Q04DX008 (ip), vehicle: saline 123 % of control | dose: 12.0 mg/kg/injection, schedule: Q01DX001 (ip), vehicle: saline 107 % of control and 111 % of control | dose: 12.0 mg/kg/injection, schedule: Q04DX003 (ip), vehicle: saline 93 % of control and 100 % of control | dose: 16.0 mg/kg/injection, schedule: Q04DX004 (ip), vehicle: saline 93 % of control | dose: 20.0 mg/kg/injection, schedule: Q01DX001 (ip), vehicle: saline 102 % of control | dose: 24.0 mg/kg/injection, schedule: Q04DX003 (ip), vehicle: saline 94 % of control | dose: 24.0 mg/kg/injection, schedule: Q04DX004 (ip), vehicle: saline 115 % of control | dose: 40.0 mg/kg/injection, schedule: Q01DX001 (ip), vehicle: saline 108 % of control
active: dose: 1.5 mg/kg/injection, schedule: Q01DX015 (ip), vehicle: saline 197 % of control

CN(C)c1nc(N(C)C)nc(N(C)C)n1
inactive: dose: 80.0 mg/kg/injection, schedule: Q04DX003 (ip), vehicle: Klucel (hydroxypropylcellulose) (HPC) 111 % of control | dose: 160.0 mg/kg/injection, schedule: Q04DX003 (ip), vehicle: Klucel (hydroxypropylcellulose) (HPC) 108 % of control

COc1cc([C@@H]2c3cc4c(cc3C[C@H]3COC(=O)[C@@H]32)OCO4)cc(OC)c1OC
inactive: dose: 5.0 mg/kg/injection, schedule: Q01DX009 (ip), vehicle: Klucel (hydroxypropylcellulose) (HPC) 107 % of control

O=C(Nc1cccc(Cl)c1)Oc1ccc2ccccc2c1
inactive: [8] 100 % of control | dose: 100.0 mg/kg/injection, schedule: Q01DX009 (ip), vehicle: saline 92 % of control | dose: 200.0 mg/kg/injection, schedule: Q01DX001 (ip), vehicle: saline with Tween-80 100 % of control | dose: 200.0 mg/kg/injection, schedule: Q01DX009 (ip), vehicle: saline 112 % of control | dose: 400.0 mg/kg/injection, schedule: Q01DX001 (ip), vehicle: saline with Tween-80 105 % of control | [9] 93 % of control

CCOC(=O)CCCl
inactive: [5] 111 % of control | [6] 97 % of control
